# Reference: patent US8765184B2 (Stanipharm, priority 2009, dated 2014)
# Experiment: Stability of the active substance throughout the process by high performance liquid chromatography
# Type: physicochemical
# Settings: HPLC; purity/titre and related substance profile compared with the starting product, both tests
structure (smiles),measurement,value
CO[C@H]1C[C@@H]2CC[C@@H](C)[C@@](O)(O2)C(=O)C(=O)N2CCCC[C@H]2C(=O)O[C@H]([C@H](C)C[C@@H]2CC[C@@H](O)[C@H](OC)C2)CC(=O)[C@H](C)/C=C(\C)[C@@H](O)[C@@H](OC)C(=O)[C@H](C)C[C@H](C)/C=C/C=C/C=C/1C [sirolimus],stability throughout the process,good stability
